Data reported in US20230248735A1, “COMPOSITIONS FOR PREVENTING OR TREATING CHRONIC OBSTRUCTIVE PULMONARY DISEASES (COPD)” (Chong Kun Dang Pharmaceutical Corp., priority 2019, published 2023).

How the values were obtained:
[1] = system: A549 cells; assay: Inhibitory effect on TGF-β1-induced EMT (E-Cad and N-Cad expression, Western blot); assay type: cell-based; settings: 5 ng/mL TGF-β1, 48 hours, compared to Vhcl (TGF-β1), FIG. 5
Experimental: (§1) In order to confirm an effect of the compound according to the present invention on preventing or treating chronic obstructive pulmonary disease, an expression of an epithelial marker protein (E-Cad) and a mesenchymal marker protein (N-Cad) was analyzed. A549 cells were cultured in RPMI-1640 medium containing 10% fetal bovine serum (FBS) and 1% penicillin-streptomycin (P/S). The 1.5×10^5 cells were plated in a 6-well plate and incubated overnight. The cells were cultured with 5 ng/mL of recombinant human transforming growth factor beta 1 (TGF-β1) to induce an epithelial-to-mesenchymal transition (EMT). TGF-β1 was diluted with RPMI-1640 (1% FBS, 1% P/S) and incubated with the cells for 48 hours. The 500 µL of culture medium was loaded on a centrifugal filter (Amicon® Ultra-0.5 mL) and centrifuged at 14,000×g for 10 minutes. The enriched culture medium was boiled with 15 µL of 4X sample buffer at 100° C. for five minutes and analyzed by using the Western blot. The cells were lysed by using an RIPA buffer containing a protease inhibitor cocktail and a phosphatase inhibitor cocktail. A lysate was incubated on ice for three minutes and centrifuged at 13,000×g, 4° C. for 20 minutes. A supernatant was quantified by using a BCA protein assay kit and analyzed by the Western blot. The prepared sample was loaded on NuPAGE Novex 4-12% Bis-Tris gel and decomposed at 120 V Proteins were transferred to a nitrocellulose membrane by using an iBlot machine. The membrane was blocked by using EzBlock Chemi according to the manufacturer’s instructions. Antibodies such as E-cadherin (E-Cad), N-cadherin (N-cad), Fibronectin-EDA (FN-EDA), etc., were used. After reaction with a horseradish peroxidase (HRP)-conjugated secondary antibody, immunoreactive proteins were visualized by using Amersham® ECL select® Western blot detection reagent, and detected by ChemiDoc® MP imaging system. The intensity of the band was quantified with ImageJ software and normalized to β-actin.

[2] = system: FN-EDA in A549 cells; assay: FN-EDA protein reduction in TGF-β1-treated cells (Western blot); assay type: cell-based; settings: 5 ng/mL TGF-β1, 48 hours, compared to Vhcl (TGF-β1), FIG. 6
Experimental: as §1
In order to confirm an effect of the compound according to the present invention on preventing or treating chronic obstructive pulmonary disease, an expression of FN-EDA, a key extracellular matrix (ECM) protein, was analyzed. The analysis was performed by the same method as described in Example 2 above.

[3] = system: mouse with induced COPD (smoking + Poly I:C); assay: Analysis of bronchoalveolar lavage fluid (BAL fluid) cell counts, smoking + Poly I:C COPD model; assay type: in vivo, C57BL/6 mouse; settings: 30 mg/kg P.O. Q.D.; compared with SM+no drug; FIG. 3
Excerpt: (§2) A C57BL/6 mouse (female, seven weeks old) was placed in a sealed smoking box and exposed to cigarette smoke for a certain period of time to induce COPD disease. Specifically, the mouse was put into the smoking box, after which a cigarette was lit and its filter was connected to a tube under a negative pressure, so that cigarette smoke could be continuously produced. Then, the smoking box was blocked, so that the mouse was forced to inhale the cigarette smoke while breathing in. The mouse was allowed to smoke for a total of four weeks. The mouse was exposed to one, two and four cigarettes once on the first, second and third days of the first week, respectively, and again exposed to four cigarettes twice and three times on the fourth and fifth days, respectively. After that, the mouse was exposed to four cigarettes three times a day for the remaining three weeks. Poly I:C (polyinosinic:polycytidylic acid) was administered into a nasal cavity of the anesthetized mouse twice a week in the third and fourth weeks during induction of smoking, so that a model of smoking + Poly I:C COPD (chronic obstructive pulmonary disease) was induced.
(§3) In order to confirm a drug administration effect of the compound according to the present invention, mice with induced COPD were divided into each group of six mice, and each of the groups was is classified as shown in a following table 1 according to an administered substance [vehicle (Veh), compound 374 (SM+1), or compound 458 (SM+2)], a route of administration [oral administration (P.O.)], and an administration interval [daily (Q.D.)].
In order to confirm an effect of the compound according to the present invention on preventing or treating chronic obstructive pulmonary disease, bronchoalveolar lavage fluid (BAL fluid) was analyzed. The 2 mL of the BAL fluid was separated from the mice of each group and centrifuged. After that, the resulting fluid was suspended in a phosphate buffer solution (PBS), after which the number of total cells was counted, and 2 × 10^5 cells were attached to a slide through a cytospin. After staining with a diff-quick stain kit, the resulting cells were classified into macrophage, neutrophil, etc. based on the properties of the stained cells, so as to count a total of 300 cells, after which a rate of respective cells was calculated with regard to the number of total cells to make a comparison among the groups.

[4] = system: IL-6, IFN-γ, MCP-1, TNF-α; assay: Expression of inflammatory cytokines in lung tissue by real-time PCR, smoking + Poly I:C COPD model; assay type: in vivo, C57BL/6 mouse; settings: 30 mg/kg P.O. Q.D., compared with SM+no drug, FIG. 4
Excerpt: as §2, §3
In order to confirm an effect of the compound according to the present invention on preventing or treating chronic obstructive pulmonary disease, an expression of inflammatory cytokines in lung tissues was analyzed. Lungs were removed from mice of each group, after which RNA was isolated from the lung tissues. For each RNA, cDNA synthesis was performed by using a reverse transcriptase, after which an expression of inflammatory cytokine markers such as IL-6, IFN-y, MCP-1, and TNF-α was analyzed through real-time PCR, so as to compare a degree of induced inflammation among the groups. In this case, a sequence of a primer used in the experiment is the same as shown in a following table 2. (* P < 0.05, ** P < 0.01, and *** P < 0.001)

[5] = system: mouse with induced COPD (smoking + Poly I:C); assay: Evaluation of immune cell infiltration in H&E-stained lung tissue sections, smoking + Poly I:C COPD model; assay type: in vivo, C57BL/6 mouse; settings: 30 mg/kg P.O. Q.D.; compared to smoking + Poly I:C (SM+no drug); FIG. 2
Excerpt: as §2, with “Poly I:C (polyinosinic:polycytidylic acid) was administered into a nasal cavity of the anesthetized mouse twice a week in the third and fourth weeks during induction of smoking, so that a model of smoking + Poly I:C COPD (chronic obstructive pulmonary disease) was induced.” left out
In order to confirm an effect of the compound according to the present invention on preventing or treating chronic obstructive pulmonary disease, a degree of immune cell infiltration was evaluated. […] According to a reference image of FIG. 1, a degree of cellular infiltration was determined as a score of 0 to 3, and the score was measured by observing slides for each group [FIG. 1: 0-none, 1-mild, 2-moderate, and 3-severe].

| Compound | expression of E-Cad (epithelial marker protein) [1] | expression of N-Cad (mesenchymal marker protein) [1] | expression of key ECM protein FN-EDA [2] | number of macrophages in BAL fluid [3] | number of neutrophils in BAL fluid [3] | number of total cells in BAL fluid [3] | expression of IFN-y in lung tissue [4] | expression of IL-6 in lung tissue [4] | expression of MCP-1 in lung tissue [4] | expression of TNF-α in lung tissue [4] | cellular infiltration score (0 to 3) in lung tissue [5] |
| --- | --- | --- | --- | --- | --- | --- | --- | --- | --- | --- | --- |
| O=C(NO)c1ccc(CN(C(=O)N2CCOCC2)c2cccc(C(F)(F)F)c2)cc1 [Compound 374, N-(4-(hydroxycarbamoyl)benzyl)-N-(3-(trifluoromethyl)phenyl)morpholine-4-carboxamide] | remarkable increase | remarkable decrease | remarkable decrease |  |  |  |  |  |  |  |  |
| O=C(NO)c1ccc(CN(C(=O)N2CCOCC2)c2ccc(F)cc2F)cc1 [Compound 413, N-(2,4-difluorophenyl)-N-(4-(hydroxycarbamoyl)benzyl)morpholine-4-carboxamide] | remarkable increase | remarkable decrease | remarkable decrease |  |  |  |  |  |  |  |  |
| O=C(NO)c1ccc(CN(C(=O)N2CCOCC2)c2ccc(F)c(Cl)c2)cc1 [Compound 458, N-(3-chloro-4-fluorophenyl)-N-(4-(hydroxycarbamoyl)benzyl)morpholine-4-carboxamide] | remarkable increase | remarkable decrease | remarkable decrease |  |  |  |  |  |  |  |  |
| COc1cccc(N(Cc2ccc(C(=O)NO)cc2)C(=O)N2CCOCC2)c1 [Compound 484, N-(4-(Hydroxycarbamoyl)Benzyl)-N-(3-Methoxyphenyl)Morpholine-4-Carboxamide] | remarkable increase | remarkable decrease | remarkable decrease |  |  |  |  |  |  |  |  |
| O=C(NO)c1ccc(CN(C(=O)N2CCOCC2)c2cccc(F)c2)cc1 [Compound 530] | remarkable increase | remarkable decrease | remarkable decrease |  |  |  |  |  |  |  |  |
| O=C(NO)c1ccc(CN(C(=O)N2CCCOCC2)c2cccc(F)c2)cc1 [Compound 652] | remarkable increase | remarkable decrease | remarkable decrease |  |  |  |  |  |  |  |  |
| O=C(NO)c1ccc(CN(C(=O)N2CCOCC2)c2cccc(C(F)(F)F)c2)cc1 [SM+1, N-(4-(hydroxycarbamoyl)benzyl)-N-(3-(trifluoromethyl)phenyl)morpholine-4-carboxamide] |  |  |  | decreased | decreased | decreased | decreased | decreased | decreased | decreased | decrease |
| O=C(NO)c1ccc(CN(C(=O)N2CCOCC2)c2ccc(F)c(Cl)c2)cc1 [SM+2, N-(3-chloro-4-fluorophenyl)-N-(4-(hydroxycarbamoyl)benzyl)morpholine-4-carboxamide] |  |  |  | decreased | decreased | decreased | decreased | decreased | decreased | decreased | decrease |
